# In PubChem BioAssay AID977614 (Broad Institute, 2014):
# The source made the active and inactive calls.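 The calls were made as follows: active = parasite count per well reduced by over 3 SD from the mean, with host cell number above 80% of untreated; inactive = the rest.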
# Test system: L. donovani amastigotes in THP-1 macrophages, DAPI imaging, 72 h
# Assay: L. donovani intracellular amastigote growth inhibitors, imaging, THP-1 host macrophages, single concentration (AID 977614);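 also: signal is the parasite per host cell ratio from DAPI stained kinetoplasts and nuclei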
row,SMILES,AC50
1,CC(=O)N1[C@H](CO)[C@H](c2ccccc2)[C@@H]1CN(CC(C)C)C(=O)c1ccccn1,> 10 µM (inactive)
2,O=C(c1ccncc1)N1C[C@@H]2[C@H](c3ccccc31)[C@@H](CO)N2Cc1ccccc1F,> 10 µM (inactive)
3,CC(=O)N1[C@@H](CO)[C@H](c2ccccc2)[C@@H]1CN(C)S(=O)(=O)c1ccccc1,> 10 µM (inactive)
4,C[C@@H]1CN([C@H](C)CO)C(=O)CCCn2cc(nn2)CO[C@@H]1CN(C)C(=O)NC1CCCCC1,> 10 µM (inactive)
5,COc1ccc(C(=O)N2C[C@H]3[C@@H](c4ccccc42)[C@H](CO)N3C(=O)NC(C)C)cc1,> 10 µM (inactive)
6,COc1cccc(C(=O)N2C[C@@H]3[C@H](c4ccccc42)[C@H](CO)N3C(=O)c2cccc(F)c2)c1,> 10 µM (inactive)
7,C[C@@H]1CN([C@@H](C)CO)C(=O)CCCn2nncc2CO[C@@H]1CN(C)C(=O)CCC(F)(F)F,> 10 µM (inactive)
8,CN1C[C@H]2[C@@H](c3ccccc31)[C@@H](CO)N2S(=O)(=O)c1ccccc1,> 10 µM (inactive)
9,CN1C[C@H]2[C@@H](c3ccccc31)[C@@H](CO)N2C(=O)C1CCOCC1,> 10 µM (inactive)
10,CCC(=O)N1C[C@@H]2[C@H](c3ccccc31)[C@H](CO)N2C(=O)CC1CC1,> 10 µM (inactive)
11,O=C(NC[C@@H]1N[C@@H](CO)[C@@H]1c1ccccc1)c1ccccc1F,> 10 µM (inactive)
12,CC(=O)N1[C@H](CNC(=O)CN(C)C)[C@H](c2ccc(C3=CCCCC3)cc2)[C@@H]1CO,> 10 µM (inactive)
13,COCC(=O)N(C[C@H]1[C@H](c2ccccc2)[C@H](CO)N1C(=O)NC(C)C)C(C)C,> 10 µM (inactive)
14,O=C(CC(F)(F)F)N1C[C@@H]2[C@H](c3ccccc31)[C@@H](CO)N2C(=O)c1ccncc1,> 10 µM (inactive)
15,CC(=O)NC[C@@H]1[C@@H](c2ccc(C#Cc3ccccc3F)cc2)[C@@H](CO)N1C(C)=O,> 10 µM (inactive)
16,O=C(NC[C@H]1[C@H](c2ccccc2)[C@H](CO)N1Cc1ccccn1)C1CCCC1,> 10 µM (inactive)
17,Cc1noc(C)c1NC(=O)N(C)C[C@H]1OCc2cnnn2CCCC(=O)N([C@H](C)CO)C[C@H]1C,> 10 µM (inactive)
18,OC[C@@H]1[C@H](c2ccc(-c3ccc(F)cc3)cc2)[C@H](CNC2CCCC2)N1CCC(F)(F)F,> 10 µM (inactive)
19,CCC(=O)N1[C@H](CO)[C@H](c2ccc(C#CC3(O)CCCC3)cc2)[C@@H]1CNC(C)=O,> 10 µM (inactive)
20,C/C=C/c1ccc([C@H]2[C@@H](CO)N(C(C)=O)[C@H]2CN(C(C)=O)C2CCCC2)cc1,> 10 µM (inactive)
21,CN(C[C@@H]1[C@H](c2ccccc2)[C@H](CO)N1Cc1ccccn1)S(C)(=O)=O,> 10 µM (inactive)
22,O=C(Nc1ccccc1Cl)N1C[C@@H]2[C@H](c3ccccc31)[C@@H](CO)N2C(=O)c1cccnc1,> 10 µM (inactive)
23,O=C(c1ccncc1)N1C[C@@H]2[C@H](c3ccccc31)[C@H](CO)N2C(=O)CN1CCOCC1,> 10 µM (inactive)
24,O=C(CN1CCOCC1)N1[C@H](CO)[C@H]2c3ccccc3NC[C@H]21,> 10 µM (inactive)
25,C[C@H](CO)N1C[C@H](C)[C@@H](CN(C)C(=O)Nc2ccc3c(c2)OCCO3)OCc2cnnn2CCCC1=O,> 10 µM (inactive)
26,C[C@H](CO)N1C[C@H](C)[C@@H](CN(C)C(=O)c2ccc3ccn(C)c3c2)OCc2cnnn2CCCC1=O,> 10 µM (inactive)

row,SMILES,AC50
1,C[C@H](CO)N1C[C@H](C)[C@H](CN(C)Cc2cccc(C(F)(F)F)c2)OCc2cnnn2CCCC1=O,> 10 µM (inactive)
2,COc1ccc(NC(=O)N2C[C@H]3[C@@H](c4ccccc42)[C@@H](CO)N3Cc2ccccn2)cc1,> 10 µM (inactive)
3,O=S(=O)(NC[C@@H]1[C@@H](c2ccccc2)[C@H](CO)N1CC1CC1)c1ccccc1,> 10 µM (inactive)
4,O=S(=O)(NC[C@@H]1[C@@H](c2ccccc2)[C@@H](CO)N1CC1CC1)c1ccccc1,> 10 µM (inactive)
5,O=C(C1CC1)N1C[C@@H]2[C@H](c3ccccc31)[C@@H](CO)N2C(=O)c1ccccc1,> 10 µM (inactive)
6,O=C(NC[C@@H]1[C@@H](c2ccccc2)[C@H](CO)N1C(=O)Cc1ccncc1)C1CCC1,> 10 µM (inactive)
7,CC(C)NC(=O)N1[C@H](CNC(=O)CN(C)C)[C@H](c2ccccc2)[C@@H]1CO,> 10 µM (inactive)
8,C[C@H](CO)N1C[C@H](C)[C@@H](CN(C)S(=O)(=O)c2cccc(C#N)c2)OCc2cn(nn2)CCCC1=O,> 10 µM (inactive)
9,O=C(Nc1ccc(F)cc1)N1C[C@H]2[C@@H](c3ccccc31)[C@H](CO)N2Cc1ccccc1Cl,> 10 µM (inactive)
10,C/C=C/c1ccc([C@H]2[C@@H](CO)N(C(=O)C3CC3)[C@@H]2CNC(=O)NC(C)C)cc1,> 10 µM (inactive)
11,COc1ccc(C(=O)N2C[C@@H]3[C@H](c4ccccc42)[C@@H](CO)N3Cc2ccccc2Cl)cc1,> 10 µM (inactive)
12,C[C@@H]1CN([C@H](C)CO)C(=O)CCCn2cc(nn2)CO[C@@H]1CN(C)C(=O)Nc1cccc2ccccc12,> 10 µM (inactive)
13,O=C(Nc1cccc(Cl)c1)N1C[C@H]2[C@@H](c3ccccc31)[C@@H](CO)N2Cc1cccnc1,> 10 µM (inactive)
14,C[C@@H]1CN([C@H](C)CO)C(=O)CCCn2nncc2CO[C@@H]1CN(C)Cc1cccc(C(F)(F)F)c1,> 10 µM (inactive)
15,CN1C[C@H]2[C@@H](c3ccccc31)[C@@H](CO)N2Cc1ccccc1Cl,> 10 µM (inactive)
16,Cc1noc(C)c1S(=O)(=O)N(C)C[C@H]1OCc2cnnn2CCCC(=O)N([C@H](C)CO)C[C@H]1C,> 10 µM (inactive)
17,C[C@@H]1CN([C@@H](C)CO)C(=O)CCCn2nncc2CO[C@H]1CN(C)C(=O)Oc1cccc2ccccc12,> 10 µM (inactive)
18,Cc1cccc(S(=O)(=O)N2C[C@H]3[C@@H](c4ccccc42)[C@H](CO)N3C(=O)c2ccccc2)c1,> 10 µM (inactive)
19,COc1ccccc1S(=O)(=O)N(C)C[C@@H]1OCc2cn(nn2)CCCC(=O)N([C@@H](C)CO)C[C@@H]1C,> 10 µM (inactive)
20,CC(=O)N1[C@H](CO)[C@H]2c3ccccc3N(S(=O)(=O)c3ccccc3C)C[C@H]21,> 10 µM (inactive)
21,C[C@@H]1CN([C@H](C)CO)C(=O)CCCn2cc(nn2)CO[C@@H]1CN(C)S(=O)(=O)c1cccc(C#N)c1,> 10 µM (inactive)
22,C[C@H](CO)N1C[C@H](C)[C@H](CN(C)C(=O)Oc2cccc3ccccc23)OCc2cnnn2CCCC1=O,> 10 µM (inactive)
23,CN1C[C@@H]2[C@H](c3ccccc31)[C@H](CO)N2Cc1ccccc1Cl,> 10 µM (inactive)
24,CN1C[C@H]2[C@@H](c3ccccc31)[C@H](CO)N2Cc1ccccc1Cl,> 10 µM (inactive)
25,CCN(C[C@@H]1[C@H](c2ccccc2)[C@@H](CO)N1C(=O)COC)S(C)(=O)=O,> 10 µM (inactive)
26,C[C@@H]1CN([C@H](C)CO)C(=O)CCCn2nncc2CO[C@@H]1CN(C)C(=O)c1ccc2ccn(C)c2c1,> 10 µM (inactive)

row,SMILES,AC50
1,COCC(=O)N1[C@@H]2CN(C(=O)c3cccnc3)c3ccccc3[C@@H]2[C@@H]1CO,> 10 µM (inactive)
2,C[C@H](CO)N1C[C@H](C)[C@@H](CN(C)Cc2ccc3c(c2)OCCN3C)OCc2cnnn2CCCC1=O,> 10 µM (inactive)
3,C[C@H]1CN([C@@H](C)CO)C(=O)CCCn2nncc2CO[C@@H]1CN(C)Cc1ccc2c(c1)OCCN2C,> 10 µM (inactive)
4,C[C@@H]1CN([C@@H](C)CO)C(=O)CCCn2nncc2CO[C@H]1CN(C)C(=O)Nc1ccc2c(c1)OCCO2,> 10 µM (inactive)
5,COCC(=O)NC[C@@H]1[C@H](c2ccccc2)[C@H](CO)N1C(=O)c1ccccc1,> 10 µM (inactive)
6,O=C(Nc1ccc(F)cc1)N1[C@H](CO)[C@@H]2c3ccccc3NC[C@@H]21,> 10 µM (inactive)
7,C[C@H](CO)N1C[C@H](C)[C@H](CN(C)Cc2ccccc2C(=O)O)OCc2cnnn2CCCC1=O,> 10 µM (inactive)
8,CC(C)N(C[C@@H]1[C@@H](c2ccccc2)[C@H](CO)N1S(C)(=O)=O)C(=O)CN(C)C,> 10 µM (inactive)
9,C[C@H](CO)N1C[C@H](C)[C@H](CN(C)C(=O)NC2CCCC2)OCc2cnnn2CCCC1=O,> 10 µM (inactive)
10,C[C@@H]1CN([C@H](C)CO)C(=O)CCCn2nncc2CO[C@H]1CN(C)Cc1cccc2c1OCCCO2,> 10 µM (inactive)
11,O=C(Nc1ccc(F)cc1)N1C[C@@H]2[C@H](c3ccccc31)[C@H](CO)N2Cc1ccccc1Cl,> 10 µM (inactive)
12,O=C(c1ccc2c(c1)OCO2)N1C[C@@H]2[C@H](c3ccccc31)[C@H](CO)N2C(=O)CC1CC1,> 10 µM (inactive)
13,O=C(Cc1ccccn1)N1[C@H](CO)[C@H]2c3ccccc3NC[C@H]21,> 10 µM (inactive)
14,CCC(=O)N1[C@H](CO)[C@H](c2ccc(-c3cccc(OC)c3)cc2)[C@H]1CNC(C)=O,> 10 µM (inactive)
15,CCNC[C@H]1[C@@H](c2ccccc2)[C@@H](CO)N1C(=O)Cc1ccccn1,> 10 µM (inactive)
16,O=C(CC(F)(F)F)N1C[C@H]2[C@@H](c3ccccc31)[C@H](CO)N2CC1CCOCC1,> 10 µM (inactive)
17,C[C@H](CO)N1C[C@H](C)[C@@H](CN(C)C(=O)c2ccc(N3CCN(C)CC3)cc2)OCc2cnnn2CCCC1=O,> 10 µM (inactive)
18,COCC(=O)N1[C@@H]2CN(C)c3ccccc3[C@@H]2[C@@H]1CO,> 10 µM (inactive)
19,O=C(c1ccc2c(c1)OCO2)N1C[C@@H]2[C@H](c3ccccc31)[C@@H](CO)N2Cc1cccnc1,> 10 µM (inactive)
20,O=C(NC[C@H]1[C@H](c2ccccc2)[C@@H](CO)N1Cc1ccccn1)C1CCCC1,> 10 µM (inactive)
21,CCCNC(=O)N1C[C@H]2[C@@H](c3ccccc31)[C@H](CO)N2Cc1cccc(OC)c1,> 10 µM (inactive)
22,CCN(C[C@@H]1[C@@H](c2ccc(-c3cccnc3)cc2)[C@H](CO)N1C(C)=O)C(C)=O,> 10 µM (inactive)
23,CCN(C[C@H]1[C@H](c2ccccc2)[C@H](CO)N1C(=O)COC)S(C)(=O)=O,> 10 µM (inactive)
24,C[C@H](CO)N1C[C@H](C)[C@H](CN(C)C(=O)Nc2cccc(Oc3ccccn3)c2)OCc2cnnn2CCCC1=O,> 10 µM (inactive)
25,CN(C)CC(=O)N1[C@@H](CO)[C@@H]2c3ccccc3N(C(=O)Cc3ccccc3)C[C@@H]21,> 10 µM (inactive)
